According to patent US20240415819A1, “MACROCYCLIC COMPOUNDS AS PROTEASOME SUBUNIT BETA TYPE-5 INHIBITORS” (Lead Discovery Center GmbH, priority 2021, published 2024):

Key:
HT-29 cells = test: CellTiter-Glo luminescent cell viability assay with HT-29 cells (72h incubation); format: cell-based, human; conditions: Homo sapiens, HT-29, HT29 cells, read-out: CTG HT29
In short: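 400 cells per well in DMEM/10% FCS were dosed after 24 h and kept 72 h at 37 °C, 5% CO2. ATP-based luminescence (CellTiter-Glo) normalized to DMSO and 10 μM staurosporine controls; IC50 by dose-response fit.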

[1] = tested on: A549 (human lung carcinoma cell line); test: Glo assay of A549 cells (Table 3; ProteasomeGlo plating scheme); format: cell-based; conditions: Homo sapiens; A549 cells; read-out: PGLo A549
In short: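 Luminescent read-out of cellular chymotrypsin-like proteasome activity: cells exposed to compound 105 min at 37° C., 5% CO2, then given Suc-LLVY-Glo reagent, shaken 2-5 min and kept dark 10-15 min before reading. Values are IC50 [nM].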

[2] = molecular target: T1, β5 subunit of the human constitutive proteasome (CPS) (Homo sapiens, UniProt P28074); test: β5 inhibition assay, human constitutive proteasome (Suc-LLVY-AMC); format: biochemical; conditions: IC50 class, Suc-LLVY-AMC substrate
T1 construct: purchased Boston Biochem E-360
Method: The enzymatic activity of the β5 subunit of the human constitutive proteasome (CPS) is analyzed. In another assay, which differs from the assay of the human constitutive proteasome only in using the human immunoproteasome (IPS) the enzymatic activity of the β5 subunit of the human immunoproteasome (IPS) is analyzed. […] Inhibition is indicated as IC50 [nM] (“-”=not measured).

| SMILES | IC50 (HT-29 cells) [nM] | IC50 [1] [nM] | IC50 [2] [nM] |
| --- | --- | --- | --- |
| Cc1ccc2cc1CNC(=O)[C@H](CCc1ccccc1)NC(=O)[C@@H](NC(=O)c1ccccn1)CC(=O)N1CCCC(CCO2)C1 (stereo partly drawn) [Compound 40, N-((9S,12S)-5^4-methyl-8,11,14-trioxo-9-phenethyl-4-oxa-7,10-diaza-1(3,1)-piperidina-5(1,3)-benzenacyclotetradecaphane-12-yl)picolinamide] | < 100 | < 100 | < 100 |
| Cc1ccc2cc1CNC(=O)[C@H](CCc1ccccc1)NC(=O)[C@@H](NS(C)(=O)=O)CC(=O)N1CCCC(CCO2)C1 (stereo partly drawn) [Compound 37, N-((9S,12S)-5^4-methyl-8,11,14-trioxo-9-phenethyl-4-oxa-7,10-diaza-1(3,1)-piperidina-5(1,3)-benzenacyclotetradecaphane-12-yl)methanesulfonamide] | < 100 | < 100 | < 100 |
| Cc1ccc2cc1CNC(=O)[C@H](CCc1ccccc1)NC(=O)[C@@H](NC(=O)CN1CCOCC1)CC(=O)N1CCCC(CCO2)C1 (stereo partly drawn) [Compound 88, N-((9S,12S)-5^4-methyl-8,11,14-trioxo-9-phenethyl-4-oxa-7,10-diaza-1(3,1)-piperidina-5(1,3)-benzenacyclotetradecaphane-12-yl)-2-morpholinoacetamide] | < 100 | < 100 | < 100 |
| Cc1ccc2cc1CNC(=O)C(CCc1cccnc1)NC(=O)CCC(=O)N1CCCC(CCO2)C1 (stereo not shown) [Compound 51, 5^4-methyl-9-(2-(pyridin-3-yl)ethyl)-4-oxa-7,10-diaza-1(3,1)-piperidina-5(1,3)-benzenacyclotetradecaphane-8,11,14-trione] | 1000 to 5000 | 100 to 500 | < 100 |
| Cc1ccc2cc1CNC(=O)[C@H](CCc1ccccc1)NC(=O)CCCCC(=O)N1CCCC(CCO2)C1 (stereo partly drawn) [Compound 16, (9S)-5^4-methyl-9-phenethyl-4-oxa-7,10-diaza-1(3,1)-piperidina-5(1,3)-benzenacyclohexadecaphane-8,11,16-trione] | 100 to 500 | 500 to 1000 | < 100 |
| Cc1ccc2cc1CNC(=O)[C@H](CCc1ccccc1)NC(=O)[C@@H](NC(=O)CCc1cccc(F)c1)CC(=O)N1CCCC(CCO2)C1 (stereo partly drawn) [Compound 25, 3-(3-fluorophenyl)-N-((9S,12S)-5^4-methyl-8,11,14-trioxo-9-phenethyl-4-oxa-7,10-diaza-1(3,1)-piperidina-5(1,3)-benzenacyclotetradecaphane-12-yl)propanamide] | < 100 | < 100 | < 100 |
| Cc1ccc2cc1CNC(=O)[C@H](CCc1ccccc1)NC(=O)[C@@H](Nc1nc3ccccc3[nH]1)CC(=O)N1CCCC(CCO2)C1 (stereo partly drawn) [Compound 45, (9S,12S)-12-((1H-benzo[d]imidazol-2-yl)amino)-5^4-methyl-9-phenethyl-4-oxa-7,10-diaza-1(3,1)-piperidina-5(1,3)-benzenacyclotetradecaphane-8,11,14-trione] | 100 to 500 | 100 to 500 | < 100 |
| Cc1ccc2cc1CNC(=O)[C@H](CCc1ccccc1)NC(=O)[C@@H](N1C(=O)CCC1=O)CC(=O)N1CCCC(CCO2)C1 (stereo partly drawn) [Compound 43, (9S,12S)-12-(2,5-dioxopyrrolidin-1-yl)-5^4-methyl-9-phenethyl-4-oxa-7,10-diaza-1(3,1)-piperidina-5(1,3)-benzenacyclotetradecaphane-8,11,14-trione] | < 100 | 100 to 500 | < 100 |
| Cc1ccc2cc1CNC(=O)[C@H](CCc1ccccc1)NC(=O)[C@@H](N)CC(=O)N1CCCC(CCO2)C1 (stereo partly drawn) [Compound 8, (9S,12S)-12-amino-5^4-methyl-9-phenethyl-4-oxa-7,10-diaza-1(3,1)-piperidina-5(1,3)-benzenacyclotetradecaphane-8,11,14-trione] | 100 to 500 | 500 to 1000 | < 100 |
| Cc1ccc2cc1CNC(=O)[C@H](C)NC(=O)CCC(=O)N1CCCC(CCO2)C1 (stereo partly drawn) [Compound 78, (9S)-5^4,9-dimethyl-4-oxa-7,10-diaza-1(3,1)-piperidina-5(1,3)-benzenacyclotetradecaphane-8,11,14-trione] | – | > 5000 | 1000 to 5000 |

Continued, values first:

| IC50 (HT-29 cells) [nM] | IC50 [1] [nM] | IC50 [2] [nM] | SMILES |
| --- | --- | --- | --- |
| 100 to 500 | 500 to 1000 | 100 to 500 | Cc1ccc2cc1CNC(=O)[C@@H](CCc1ccccc1)NC(=O)[C@@H](NC(=O)OCc1ccccc1)CC(=O)N1CCC[C@H](CCO2)C1 [Compound 289, benzyl ((13R,9R,12S)-5^4-methyl-8,11,14-trioxo-9-phenethyl-4-oxa-7,10-diaza-1(3,1)-piperidina-5(1,3)-benzenacyclotetradecaphane-12-yl)carbamate] |
| < 100 | < 100 | < 100 | Cc1ccc2cc1CNC(=O)[C@H](CCc1ccccc1)NC(=O)[C@@H](NC(=O)CCc1ccccc1-c1ccccc1)CC(=O)N1CCCC(CCO2)C1 (stereo partly shown) [Compound 177] |
| < 100 | < 100 | – | CC(=O)N[C@H]1CC(=O)N2CCCC(CCOc3ccc(C)c(c3)CNC(=O)C(CCc3cnccn3)NC1=O)C2 (stereo partly drawn) [Compound 564, N-((12S)-5^4-methyl-8,11,14-trioxo-9-(2-(pyrazin-2-yl)ethyl)-4-oxa-7,10-diaza-1(3,1)-piperidina-5(1,3)-benzenacyclotetradecaphane-12-yl)acetamide] |
| 100 to 500 | 100 to 500 | < 100 | CC(=O)N[C@H]1CCCC(=O)N2CCOC(CCOc3ccc(C)c(c3)CNC(=O)[C@H](CCc3ccccc3)NC1=O)C2 (stereo partly drawn) [Compound 186, N-((9S,12S)-5^4-methyl-8,11,16-trioxo-9-phenethyl-4-oxa-7,10-diaza-1(2,4)-morpholina-5(1,3)-benzenacyclohexadecaphane-12-yl)acetamide] |
| < 100 | < 100 | < 100 | Cc1ccc2cc1CNC(=O)[C@H](CCc1ccccc1)NC(=O)[C@@H](NC(=O)C1CCNCC1(F)F)CC(=O)N1CCCC(CCO2)C1 (stereo partly drawn) [Compound 152, 3,3-difluoro-N-((9S,12S)-5^4-methyl-8,11,14-trioxo-9-phenethyl-4-oxa-7,10-diaza-1(3,1)-piperidina-5(1,3)-benzenacyclotetradecaphane-12-yl)piperidine-4-carboxamide] |
| 100 to 500 | < 100 | < 100 | CC(=O)N[C@H]1CC(=O)N2CCCC(CCOc3ccc(C)c(c3)CNC(=O)C(c3cnn(CCCC(=O)O)c3)NC1=O)C2 (stereo partly drawn) [Compound 568, 4-(4-((12S)-12-acetamido-5^4-methyl-8,11,14-trioxo-4-oxa-7,10-diaza-1(3,1)-piperidina-5(1,3)-benzenacyclotetradecaphane-9-yl)-1H-pyrazol-1-yl)butanoic acid] |
| < 100 | 100 to 500 | < 100 | CCC(CC)(CO)C(=O)N[C@H]1CC(=O)N2CCCC(CCOc3ccc(C)c(c3)CNC(=O)[C@H](CCc3ccccc3)NC1=O)C2 (stereo partly drawn) [Compound 285, 2-ethyl-2-(hydroxymethyl)-N-((9S,12S)-5^4-methyl-8,11,14-trioxo-9-phenethyl-4-oxa-7,10-diaza-1(3,1)-piperidina-5(1,3)-benzenacyclotetradecaphane-12-yl)butanamide] |
| < 100 | 100 to 500 | < 100 | Cc1ccc2cc1CNC(=O)[C@H](CCc1ccccc1)NC(=O)[C@@H](NC(=O)C1CCC(C(F)(F)F)N1)CC(=O)N1CCCC(CCO2)C1 (stereo partly drawn) [Compound 157, N-((9S,12S)-5^4-methyl-8,11,14-trioxo-9-phenethyl-4-oxa-7,10-diaza-1(3,1)-piperidina-5(1,3)-benzenacyclotetradecaphane-12-yl)-5-(trifluoromethyl)pyrrolidine-2-carboxamide] |
| < 100 | < 100 | < 100 | Cc1ccc2cc1CNC(=O)[C@H](CCc1ccccc1)NC(=O)[C@@H](NC(=O)OCc1ccccc1)CCC(=O)N1CCCC(CCO2)C1 (stereo partly drawn) [Compound 199, benzyl ((9S,12S)-5^4-methyl-8,11,15-trioxo-9-phenethyl-4-oxa-7,10-diaza-1(3,1)-piperidina-5(1,3)-benzenacyclopentadecaphane-12-yl)carbamate] |
| 100 to 500 | < 100 | < 100 | Cc1ccc2cc1CNC(=O)[C@H](CCc1ccccc1)NC(=O)[C@@H](NC(=O)CN1CCNCC1)CC(=O)N1CCCC(CCO2)C1 (stereo partly drawn) [Compound 126, N-((9S,12S)-5^4-methyl-8,11,14-trioxo-9-phenethyl-4-oxa-7,10-diaza-1(3,1)-piperidina-5(1,3)-benzenacyclotetradecaphane-12-yl)-2-(piperazin-1-yl)acetamide] |
| < 100 | < 100 | < 100 | Cc1ccc2cc1CNC(=O)[C@H](CCc1ccccc1)NC(=O)[C@@H](NC(=O)CCc1ccc3[nH]ccc3c1)CC(=O)N1CCCC(CCO2)C1 (stereo partly drawn) [Compound 182, 3-(1H-indol-5-yl)-N-((9S,12S)-5^4-methyl-8,11,14-trioxo-9-phenethyl-4-oxa-7,10-diaza-1(3,1)-piperidina-5(1,3)-benzenacyclotetradecaphane-12-yl)propanamide] |
| < 100 | < 100 | < 100 | Cc1ccc2cc1CNC(=O)[C@H](CCc1ccccc1)NC(=O)[C@@H](NC(=O)CCc1ccc(-c3ccccc3)cc1)CC(=O)N1CCCC(CCO2)C1 (stereo partly drawn) [Compound 176, 3-([1,1′-biphenyl]-4-yl)-N-((9S,12S)-5^4-methyl-8,11,14-trioxo-9-phenethyl-4-oxa-7,10-diaza-1(3,1)-piperidina-5(1,3)-benzenacyclotetradecaphane-12-yl)propanamide] |
